# Source: PMC5974752, “Bax/Tubulin/Epithelial-Mesenchymal Pathways Determine the Efficacy of Silybin Analog HM015k in Colorectal Cancer Cell Growth and Metastasis” (Frontiers in Pharmacology, 2018)
# Columns and labels:
# Type in all cases: cell-based
# LOVO = assay: MTT assay; settings: Homo sapiens, 72 h incubation, mean ± SD of three experiments, read-out: IC50 ± SD, Colon LOVO
# Description: (§1) The 3-(4,5-dimethylthiazol-2-yl)-2,5-diphenyltetrazolium bromide (MTT) assay was used to determine the sensitivity of the different CRC cells to the novel silybin derivatives (Hussein et al., [2017]; Manivannan et al., [2017]). The cells were seeded at a density of 4,000–5,000 cells/well in 96 well plates and incubated with serial dilutions of the compounds (0, 0.1, 0.3, 1, 3, 10, 30, and 100 μM). The MTT dye (4 mg/ml) was added after 72 h of incubation and incubated with the cells for an additional 4 h at 37°C. Following incubation, the media was discarded and the formazan crystals were dissolved by adding 100 μL of DMSO to each well. A DTX 880 multimode detector (Beckman Coulter Life, Indianapolis IN, USA) was used to determine the absorbance readings at a wavelength of 570 nm. The IC50 values were determined based on 3 separate experiments, with each experiment done in triplicate. The selectivity of the compounds was determined by comparing their cytotoxicity for CRC to normal epithelial cell lines (CHO, and CRL1459).
# S1 = assay: MTT assay; settings: Homo sapiens, 72 h incubation, mean ± SD of three experiments, read-out: IC50 ± SD, Colon S1
# Description: as §1
# COLO 205 cell line = assay: Transwell migration assay; settings: 2 and 4 μM, data not shown
# Description: The effect of compound 15k on the invasiveness of LOVO was tested using 24 trans-well inserts with an […]. The addition of the insert to the well forms two chambers (upper and lower), where the upper chamber was used to grow the cells on the porous membrane. The lower chamber was filled with 600 μl of cell-free DMEM medium. A 200 μl of cell suspension was added to each insert and allowed to attach for 1 h. The test compound was added in different concentrations and incubated with the cells for 24 h. […] Finally, the remaining migrated cells were fixed by methanol and dyed with 0.1% crystal violet dye and observed with an EVOS microscope. The number of migrated cells was counted and compared between the treated and control cells.
# The development of cancer metastasis is dependent on the migration and invasive properties of cancerous cells (van Zijl et al., [2011]). The wound healing and transwell migration assays were used with LOVO cells, as a model for metastatic CRC as it is characterized by a high level of invasiveness (Fan et al., [2015]). The wound healing assay is a well-established method to detect and analyze cell migration potential (Liang et al., [2007]). […] The effect of compound 15k on the invasiveness of COLO 205 cell line was also measured using trans-well migration assay. […] 15j also reversed cell migration and metastasis at different concentrations.
smiles,measurement,setting,value
O=C(/C=C/c1cccc(OCc2ccccc2)c1)c1ccc(O)cc1 [Compound 15k],IC50,LOVO,2300 ± 200 nM
same,IC50,S1,1900 ± 900 nM
same,trans-well migration,COLO 205 cell line,significantly inhibited the migration
